The results in this text go back to a melting point compilation (Tetko et al.; mined from patent text by program, amines drawn as free bases though some values may be those of a salt).

As for `CC(=O)OCC(=O)C1C(C)CC2C3CC(Cl)C4=CC(=O)C=CC4(C)C34OC4CC21C` (centres undefined), the melting point was found to be 189 °C.

`O=C(O)C1=Cc2cc(S(=O)(=O)Cc3ccccc3)ccc2OC1C(F)(F)F` (centres undefined) came in with a melting point of 172 to 176 °C.

`C[C@@H]1[C@H](c2ccccc2)OC(=O)N1C(=O)CCC(F)(F)F`: the melting point is 93 to 95 °C. Turning to `Nc1nc2cccnc2c2c1nc(CO)n2Cc1cc(-c2ccc(F)cc2)no1`, the melting point was in the range of 247 to 248 °C. Compound `O=S1(=O)CCN2C=CC=C(c3ccc(Oc4ccccc4)cc3)C2=N1` displayed a melting point of 251 to 252 °C. In the case of `CCCCOc1cc(CNCCN(CC)CC)cc(S(N)(=O)=O)c1Cc1ccccc1` it was 89 to 93 °C; in that of `CCOC(=O)c1ccc(OCC2=CCN(c3ccc(Cl)nn3)CC2)cc1`, 162 °C; in that of `Cn1c(CC(=O)O)ccc1C(=O)c1ccc(C(F)(F)F)cc1`, 152 to 154 °C.

Take `CCOC(=O)Cc1cccc(-c2nc(CCl)c(C)o2)c1`: the melting point fell in the range of 64 to 65 °C.

For `CC1CC(=O)NN=C1c1ccc2c(c1)Oc1c[nH]nc1N2` (centres undefined), the melting point lay in the range of 304 to 306 °C. In the case of `C#CCOC(C(=O)O)c1ccc(Cl)cc1` (centres undefined), the melting point lay in the range of 69 to 70 °C.

In turn, `COc1cc2c(c3c1OC(C)(C)C3)C(c1cccc(-c3ccc(NC(=O)C(F)(F)F)cc3)c1)=NC(C)(C)C2` displayed a melting point of 149 to 154 °C. Compound `Cc1cc2c3c(ccc2cc1Br)OC(=O)C3` returned a melting point of 238 to 240 °C. `Cc1cc(C)n2nc(S(=O)(=O)Nc3c(Cl)cccc3Cl)c(C#N)c2n1` showed a melting point of 280 to 285 °C. The compound `CCOC(=O)c1cc(CC)sc1Nc1cc(F)ccc1[N+](=O)[O-]` showed a melting point of 87 to 88 °C. As for `CCCCc1ncc(C(=O)OCC)c(NCc2ccc(-c3ccccc3-c3nnnn3C(c3ccccc3)(c3ccccc3)c3ccccc3)cc2)n1`, the melting point lay in the range of 116 to 118 °C. `CC(=O)c1sc(-c2ccncc2)c(C)c1-c1ccncc1`: the melting point lay within 117 to 118 °C. `CN(Cc1ccccc1)C(=O)C[C@@H](Cc1ccccc1)C(=O)O` returned a melting point of 119 to 121 °C. The same measure for `CC(C)CCSc1cc(C(=O)O)cc([N+](=O)[O-])c1-c1ccccc1`: 143 to 144 °C; for `CCCCCn1c(C)c(C(=O)c2ccc(Br)c3ccccc23)c2cccc(OC)c21`: 114 °C. `Nc1nc(Cl)nc2c1ncn2C1OC(CO)C(O)C1F` (centres undefined) yielded a melting point of 225 to 226 °C.

Take `COc1cccc(OC)c1C(=O)N1CC2CCCN2c2ccccc21` (centres undefined): the melting point is 140 to 142 °C. On to `CCOP(=O)(OCC)C(P(=O)(OCC)OCC)S(=O)(=O)c1cc(C(C)(C)C)c(O)c(C(C)(C)C)c1`, for which the melting point is 118 to 120 °C. `COc1cccc(C(F)(F)F)c1C(N)=O`: the melting point was 178 to 181 °C. As for `Cc1c(F)c(F)cc2c1c(=O)c(C(=O)O)cn2C1CC1`, the melting point was in the range of 294 to 298 °C. The same measure for `COc1ccc(CCOc2ccnc(Cl)c2)cc1OC`: 116 to 117 °C; for `O=C(Cl)c1cccc(Oc2ccc(S(=O)(=O)c3ccc(Oc4cccc(C(=O)Cl)c4)cc3)cc2)c1`: 113 to 116 °C.

Turning to `COc1cccc(Oc2cccc(-c3cccc(C(=O)NCCC#N)c3)n2)c1`, the melting point fell in the range of 85 to 86 °C. `CC1(c2ccc(C#N)cc2)C(=O)N(Cc2ccc(F)cc2)Cc2cncn21` (centres undefined): the melting point is 66 to 70 °C. As to `CCCCCC(C)(c1ccc(O)c(C)c1)c1ccc(O)c(C)c1`, the melting point fell in the range of 99 to 101 °C. Turning to `CC(C)c1nc(CCO)n(Cc2ccncc2)c1Sc1cc(Cl)cc(Cl)c1`, the melting point fell in the range of 121 to 122 °C. The same measure for `CCn1cnc2c(Nc3cccc(F)c3)nc(Cl)nc21`: 136 °C; for `O=P(Cc1ccccc1)(C1CCCCC1)C1CCCCC1`: 147 to 149 °C. In turn, `O=C(C1CCCC1)N1c2ccccc2CCC1CN1CCN(c2cccc3[nH]ccc23)CC1` (centres undefined) registered a melting point of 150 to 153 °C.
